Assay: xn = mol fraction of the nth substance listed

ClC(Cl)(Cl)Cl + CCCCOC(C)=O
101.33 kPa
Conditions | viscosity [mPa·s]
303.15 K, x1 = 0.1942 | 0.664
303.15 K, x1 = 0.3145 | 0.685
303.15 K, x1 = 0.4207 | 0.702
303.15 K, x1 = 0.5252 | 0.72
303.15 K, x1 = 0.5754 | 0.732
303.15 K, x1 = 0.7049 | 0.759
303.15 K, x1 = 0.7537 | 0.774
303.15 K, x1 = 0.8196 | 0.788
303.15 K, x1 = 0.8765 | 0.803
303.15 K, x1 = 0.9415 | 0.823
313.15 K, x1 = 0.2041 | 0.587
313.15 K, x1 = 0.4028 | 0.619
313.15 K, x1 = 0.5068 | 0.634
313.15 K, x1 = 0.604 | 0.651
313.15 K, x1 = 0.8058 | 0.695

ClC(Cl)(Cl)Cl + O=C1CCCCC1
298.15 K, 101 kPa
Conditions | viscosity [mPa·s]
x2 = 0.0951 | 1.017
x2 = 0.2086 | 1.109
x2 = 0.3074 | 1.193
x2 = 0.4109 | 1.289
x2 = 0.5072 | 1.381
x2 = 0.6004 | 1.476
x2 = 0.7013 | 1.577
x2 = 0.8072 | 1.669
x2 = 0.9023 | 1.754

ClC(Cl)(Cl)Cl + CCO
Conditions | viscosity [mPa·s]
298.15 K, 101 kPa, x2 = 0.0247 | 0.89
298.15 K, 101 kPa, x2 = 0.0475 | 0.884
298.15 K, 101 kPa, x2 = 0.0769 | 0.883
298.15 K, 101 kPa, x2 = 0.1 | 0.872
298.15 K, 101 kPa, x2 = 0.1289 | 0.874
298.15 K, 101 kPa, x2 = 0.2438 | 0.886
298.15 K, 101 kPa, x2 = 0.27 | 0.886
298.15 K, 101 kPa, x2 = 0.37 | 0.915
298.15 K, 101 kPa, x2 = 0.3813 | 0.931
298.15 K, 101 kPa, x2 = 0.45 | 0.947
298.15 K, 101 kPa, x2 = 0.5136 | 0.974
298.15 K, 101 kPa, x2 = 0.645 | 1.023
298.15 K, 101 kPa, x2 = 0.69 | 1.037
298.15 K, 101 kPa, x2 = 0.768 | 1.068
298.15 K, 101 kPa, x2 = 0.77 | 1.064
298.15 K, 101 kPa, x2 = 0.83 | 1.079
298.15 K, 101 kPa, x2 = 0.8966 | 1.108
298.15 K, 101 kPa, x2 = 0.93 | 1.091
298.15 K, 101 kPa, x2 = 0.9687 | 1.1
303 K, 101.33 kPa, x2 = 0.37 | 0.8302
303 K, 101.33 kPa, x2 = 0.45 | 0.8567
303 K, 101.33 kPa, x2 = 0.53 | 0.8727
303 K, 101.33 kPa, x2 = 0.64 | 0.9314
303 K, 101.33 kPa, x2 = 0.69 | 0.9449
303 K, 101.33 kPa, x2 = 0.73 | 0.9479
303 K, 101.33 kPa, x2 = 0.83 | 0.9806
303 K, 101.33 kPa, x2 = 0.89 | 0.9857
303 K, 101.33 kPa, x2 = 0.91 | 1.007
303 K, 101.33 kPa, x2 = 0.93 | 0.9995
303 K, 101.33 kPa, x2 = 0.95 | 1.008
303.15 K, 101 kPa, x2 = 0.0565 | 0.8183
303.15 K, 101 kPa, x2 = 0.0932 | 0.8112
303.15 K, 101 kPa, x2 = 0.1798 | 0.8093
303.15 K, 101 kPa, x2 = 0.312 | 0.8313
303.15 K, 101 kPa, x2 = 0.4579 | 0.8759
303.15 K, 101 kPa, x2 = 0.5273 | 0.8994
303.15 K, 101 kPa, x2 = 0.6028 | 0.924
303.15 K, 101 kPa, x2 = 0.689 | 0.949
303.15 K, 101 kPa, x2 = 0.7868 | 0.974
303.15 K, 101 kPa, x2 = 0.867 | 0.9867
303.15 K, 101 kPa, x2 = 0.9134 | 0.9917
303.15 K, 101 kPa, x2 = 0.9566 | 0.9933
303.15 K, 101 kPa, x2 = 0.9724 | 0.9934
308.15 K, 101 kPa, x2 = 0.0247 | 0.773
308.15 K, 101 kPa, x2 = 0.0475 | 0.768
308.15 K, 101 kPa, x2 = 0.0769 | 0.762
308.15 K, 101 kPa, x2 = 0.1289 | 0.759
308.15 K, 101 kPa, x2 = 0.2438 | 0.768
308.15 K, 101 kPa, x2 = 0.3813 | 0.783
308.15 K, 101 kPa, x2 = 0.5136 | 0.825
308.15 K, 101 kPa, x2 = 0.645 | 0.857
308.15 K, 101 kPa, x2 = 0.768 | 0.891
308.15 K, 101 kPa, x2 = 0.8966 | 0.923
308.15 K, 101 kPa, x2 = 0.9687 | 0.914
313 K, 101.33 kPa, x2 = 0.37 | 0.7056
313 K, 101.33 kPa, x2 = 0.45 | 0.7242
313 K, 101.33 kPa, x2 = 0.53 | 0.7385
313 K, 101.33 kPa, x2 = 0.64 | 0.7801
313 K, 101.33 kPa, x2 = 0.69 | 0.7889
313 K, 101.33 kPa, x2 = 0.73 | 0.7949
313 K, 101.33 kPa, x2 = 0.83 | 0.8127
313 K, 101.33 kPa, x2 = 0.89 | 0.817
313 K, 101.33 kPa, x2 = 0.91 | 0.8276
313 K, 101.33 kPa, x2 = 0.93 | 0.8251
313 K, 101.33 kPa, x2 = 0.95 | 0.8358
318.15 K, 101 kPa, x2 = 0.0247 | 0.678
318.15 K, 101 kPa, x2 = 0.0475 | 0.676
318.15 K, 101 kPa, x2 = 0.0769 | 0.671
318.15 K, 101 kPa, x2 = 0.1289 | 0.664
318.15 K, 101 kPa, x2 = 0.2438 | 0.672
318.15 K, 101 kPa, x2 = 0.3813 | 0.672
318.15 K, 101 kPa, x2 = 0.5136 | 0.698
318.15 K, 101 kPa, x2 = 0.645 | 0.72
318.15 K, 101 kPa, x2 = 0.768 | 0.744
318.15 K, 101 kPa, x2 = 0.8966 | 0.773
318.15 K, 101 kPa, x2 = 0.9687 | 0.769
323 K, 101.33 kPa, x2 = 0.37 | 0.6106
323 K, 101.33 kPa, x2 = 0.45 | 0.6123
323 K, 101.33 kPa, x2 = 0.53 | 0.6316
323 K, 101.33 kPa, x2 = 0.64 | 0.6595
323 K, 101.33 kPa, x2 = 0.69 | 0.6672
323 K, 101.33 kPa, x2 = 0.73 | 0.6698
323 K, 101.33 kPa, x2 = 0.83 | 0.6807
323 K, 101.33 kPa, x2 = 0.89 | 0.6862
323 K, 101.33 kPa, x2 = 0.91 | 0.6947
323 K, 101.33 kPa, x2 = 0.93 | 0.6952
323 K, 101.33 kPa, x2 = 0.95 | 0.6993

Reference: the CheMixHub viscosity set
